Measurements taken from ChEMBL document CHEMBL4354870, “GSK2818713, a Novel Biphenylene Scaffold-Based Hepatitis C NS5A Replication Complex Inhibitor with Broad Genotype Coverage” (J Med Chem, 2020).

Key:
[1] = Half life in Han Wistar rat at 5 mg/kg, po by LC-MS/MS analysis; type: ADME, organism-based; conditions: in vivo
[2] = Cmax in Han Wistar rat at 5 mg/kg, po by LC-MS/MS analysis; type: ADME, organism-based; parameters: dose 5 mg/kg, route oral; conditions: in vivo
[3] = Tmax in Han Wistar rat at 5 mg/kg, po by LC-MS/MS analysis; type: ADME, organism-based; conditions: in vivo
[4] = AUC (0 to t) in Han Wistar rat at 5 mg/kg, po by LC-MS/MS analysis; type: ADME, organism-based; conditions: in vivo
[5] = AUC (0 to infinity) in Han Wistar rat at 5 mg/kg, po by LC-MS/MS analysis; type: ADME, organism-based; parameters: dose 5 mg/kg, time infinity, route oral; conditions: in vivo
[6] = Oral availability in Han Wistar rat at 5 mg/kg by LC-MS/MS analysis; type: ADME, organism-based; conditions: in vivo
[7] = target: T1, Nonstructural protein 5A (Hepatitis C virus) (UniProt Q5L478); assay: Potency index, ratio of EC50 of cpd1 to EC50 of compound for inhibition of HCV genotype 2a con NS5A infected in HuH-Lcu-Neo cells assessed as reduction in viral replication incubated for 48 hrs by luciferase reporter gene assay; type: cell-based; conditions: Hepatitis C virus subtype 2a
T1 sequence (whole entry): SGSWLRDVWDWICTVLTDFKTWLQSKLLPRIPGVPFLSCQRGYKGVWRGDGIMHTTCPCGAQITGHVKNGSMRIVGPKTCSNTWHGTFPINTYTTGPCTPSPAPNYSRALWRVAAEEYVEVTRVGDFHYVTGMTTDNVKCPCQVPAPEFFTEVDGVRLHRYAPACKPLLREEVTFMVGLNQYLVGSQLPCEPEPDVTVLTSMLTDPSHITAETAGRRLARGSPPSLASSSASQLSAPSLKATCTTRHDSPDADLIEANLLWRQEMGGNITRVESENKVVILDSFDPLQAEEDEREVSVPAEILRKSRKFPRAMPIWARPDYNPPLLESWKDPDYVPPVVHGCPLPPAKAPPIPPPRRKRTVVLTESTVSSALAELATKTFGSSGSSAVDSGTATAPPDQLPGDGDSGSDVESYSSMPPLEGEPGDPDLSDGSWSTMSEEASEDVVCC

SMILES	half-life [1] [h]	Cmax [2] [ng/mL]	Tmax [3] [h]	AUC(0-t) [4] [ng·h/mL]	AUC(0-inf) [5] [ng·h/mL]	bioavailability [6] [%]	Ratio EC50 [7]
COC(=O)N[C@H](C(=O)N1[C@H](c2ncc(-c3ccc4c(c3)-c3ccc(-c5cnc([C@@H]6C[C@@H]7CCC[C@@H]7N6C(=O)[C@@H](NC(=O)OC)[C@@H](C)OC)[nH]5)cc3-4)[nH]2)C[C@@H]2CCC[C@@H]21)[C@@H](C)OC.Cl	1.7	258	1.5	1250	1260	41	–
COC(=O)N[C@H](C(=O)N1CCC[C@H]1c1ncc(-c2ccc3c(c2)-c2ccc(-c4cnc([C@@H]5CCCN5C(=O)[C@@H](c5ccccc5)N(C)C)[nH]4)cc2-3)[nH]1)C(C)C	–	–	–	–	–	–	22
